Earlier results on one molecule are cited in patent publication US10561602B2 (priority 2015, dated 2020).

For data set [1] the following is noted: n-octanol/0.05 M phosphate buffer at pH 7.4.
The conditions of data set [2]: water and both basic and acidic aqueous solutions.

In the case of `CC(C)C[C@H](CN)CC(=O)O` [Pregabalin, (S)-3-(aminomethyl)-5-methylhexanoic acid], the “log of the partition coefficient” value in data set [1] is recorded as “about −1.35”. Moreover, the solubility result in data set [2] is listed as “freely soluble”.
